# Measured values taken from PMC13379085 (PLOS Neglected Tropical Diseases, 2026).
# Experiments:
# [1] = test system: THP-1 macrophages; assay: MTT viability of THP-1 macrophages (host cell cytotoxicity); format: cell-based; settings: 72 hr incubation up to 300µM
# Method: Human monocytes, THP-1 (ATCC, TIB002) were used as host cells for Leishmania infection and to assess drug cytotoxicity. The cells were cultured at 37C, 5% CO2 in RPMI medium (ATCC) supplemented with 10% FBS, 1% Penicillin/Streptomycin and 0.05 mM of β-mercaptoethanol. Cells were used in experiments up to passage 10.
# Effect of the compounds on THP-1 cell viability measured using thiazolyl blue tetrazolium bromide which measures cell metabolic activity (MTT). […] Macrophages were then treated with compounds resuspended in RPMI media (1–50 µM) for 24 hours. Media was replaced with thiazolyl blue tetrazolium bromide solubilized in RPMI media (0.5 mg/mL) and incubated at 37°C for 2 hours. The reduced formazan crystals were solubilized with isopropyl alcohol and the absorbance of the resulting solution was measured at 560 nm with a background subtraction at 670 nm. […] This process was repeated with a 72-hr incubation and extended concentration range (1–300 µM) for select compounds.
# [2] = test system: Intracellular L. mexicana amastigotes; assay: microbe, parasite or virus in culture; format: cell-based, Leishmania mexicana; settings: bone marrow derived macrophages, Giemsa staining, 72-hour incubation
# Method: Bone marrow derived macrophages (BMDMs) were isolated from BALB/c mice and cultured as previously described. […] Completely differentiated BMDMs are obtained after 7 days of culture with media change every 2 days. Harvested cells are seeded onto 10 mm glass cover slips at 5 x 10^5 cells/ well of a 24 well plate in DMEM media (without LCM) and allowed to adhere overnight. BMDM cells are then infected overnight with LV82 L. donovani or L. mexicana (NR-51210) at a multiplicity of infection of 10. After infection, cells were washed three times with fresh media to remove extracellular promastigotes and treated with compounds for a 72-hour incubation. BMDM cells were then washed with phosphate buffered saline, fixed with ice-cold methanol, and stained with Giemsa (5% v/v in water). The cover slips with stained cells are mounted onto glass slides and imaged on EVOS XL (100X, Thermo Fisher Scientific). Leishmania amastigotes per 100 macrophages were determined in a blinded manner.
# [3] = test system: LV82 L. donovani; assay: Giemsa staining of intracellular L. donovani in BMDMs from wildtype C57BL/6 or lysozyme knockout mice; format: cell-based, Leishmania donovani; settings: 72-hour incubation
# Description: B6.129P2-Lyz2^tm1(cre)Ifo/J mice (stock #004781, herein termed ‘Lys K/O’) were obtained from Jackson Laboratory. This strain has a nuclear-localized Cre recombinase inserted into the first coding ATG of the lysozyme 2 gene (Lyz2) which eliminates endogenous Lyz2 gene function. Wildtype C57BL6/J mice (stock #000664) were obtained as a control.
# Bone marrow derived macrophages (BMDMs) were isolated from both mice and cultured as described above in “Image-based Evaluation of Intracellular Anti-Leishmanial Activity”. BMDMs were seeded onto glass cover slips, infected with LV82 L. donovani at a multiplicity of infection of 1:10. Cells were washed to remove extracellular promastigotes and treated with compounds (197, amphotericin B) for a 72-hour incubation. BMDM cells were then washed with phosphate buffered saline, fixed with ice-cold methanol, and stained with Giemsa (5% v/v in water). The cover slips with stained cells are mounted onto glass slides and imaged on EVOS XL (100X, Thermo Fisher Scientific). Leishmania amastigotes per 100 macrophages were determined in a blinded manner.
# [4] = molecular target: T1, lysozyme (Homo sapiens, UniProt P61626); assay: Fluorometric lysozyme activity assay; format: biochemical; design: purchased Sigma L1667; settings: lysozyme 1mg/mL; 0, 1, and 50 µM 197
# T1 sequence (P61626 19-148): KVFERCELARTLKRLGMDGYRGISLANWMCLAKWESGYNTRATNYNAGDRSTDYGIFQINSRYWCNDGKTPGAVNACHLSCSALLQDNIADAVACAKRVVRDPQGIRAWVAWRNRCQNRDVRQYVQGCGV
# Method: Recombinant human lysozyme protein (1mg/mL, Sigma, Cat # L1667) was incubated with 0 µM, 1 µM or 50 µM 197. Lysozyme activity was measured via a fluorometric assay (Abcam, Cat # ab211113) according to manufacturer’s protocol.
smiles,measurement,setting,value
O=C(CNCc1cccc(F)c1)Nc1ccc(-n2cc(C(F)(F)F)nc2-c2ccc(-c3ccc(C(F)(F)F)cc3)cc2)cc1 [Compound 197],reduction in macrophage viability,[1],Neither compound had any reduction
same,IC50,"[2]; Leishmania mexicana, Macrophage, 72 h",< 2000 nM
same,IC50,[2],1700 nM
same,anti-leishmanial activity in WT and Lys K/O BMDMs,[3],notably decreased in Lys K/O BMDMs
same,lysozyme activity,[4],dose-dependent increase
